Tested on: patients with recurrent malignant glioma classified as WHO grade III or IV
Assay: Phase 1 dose-escalation clinical trial: safety (TEAEs, DLTs, MTD);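 also: dosing continued until unacceptable toxicity, consent withdrawal, loss to follow-up or investigator/sponsor decision, with cohorts of 1-6 patients per dose level and MTD estimated by BLRM from cumulative DLT data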
[1] = 480 mg daily (240 mg BID) (N=6), cutoff April 21, 2024
[2] = 480 mg daily [240 mg BID] group, cutoff April 21, 2024
[3] = N=23 (n=2), cutoff April 21, 2023
[4] = N=39 (n=2), cutoff April 21, 2024
[5] = N=39 (n=3), cutoff April 21, 2024
[6] = Total (N=23), cutoff April 21, 2023
[7] = Total (N=39), cutoff April 21, 2024

Protocol: Administration to each subject was continued until unacceptable toxicity occurred, consent was withdrawn, the subject was lost to follow-up, or discontinuation was determined by the investigator and/or the sponsor.
The present study consists of two parts: a dose-escalation part (Part 1) and a dose-expansion part (Part 2).
Each dose level was evaluated in cohorts of 1-6 patients. In all cohorts, administration of the investigational drug to the second and subsequent patients was permitted after completion of all safety assessments on Day 8 of Cycle 1 in the first patient. […] At dose level 2 in the dose-escalation part, at least three patients were required to be evaluated before escalation to a higher dose level. After completion of each cohort, the probability of observing a DLT at each dose level in the present study was updated using the BLRM based on cumulative data from the preceding cohorts, and the MTD was estimated.

CC1(C)Oc2cc(Cl)ccc2[C@@H]2OCC3(CCN(CCn4ccnc4)CC3)C[C@H]21 [Compound 1, (4'aR,10'bR)-8'-chloro-1-[2-(1H-imidazol-1-yl)ethyl]-5',5'-dimethyl-4'a,10'b-dihydro-2'H,4'H,5'H-spiro[piperidine-4,3'-pyrano[3,2-c][1]benzopyran] diphosphate]
TEAE: alopecia [1]: 1 (16.7) n (%) | TEAE: constipation [1]: 1 (16.7) n (%) | TEAE: decreased appetite [1]: 1 (16.7) n (%) | TEAE: decreased lymphocyte count [1]: 1 (16.7) n (%) | TEAE: decreased neutrophil count [1]: 0 n (%) | TEAE: decreased platelet count [1]: 0 n (%) | TEAE: diarrhea [1]: 0 n (%) | TEAE: dry skin [1]: 3 (50.0) n (%) | TEAE: fall [1]: 3 (50.0) n (%) | TEAE: fatigue [1]: 2 (33.3) n (%) | TEAE: headache [1]: 0 n (%) | TEAE: hypertrigly-ceridaemia [1]: 0 n (%) | TEAE: hyponatremia [1]: 1 (16.7) n (%) | TEAE: increase in blood cholesterol [1]: 1 (16.7) n (%) | TEAE: increased alanine aminotransferase [1]: 5 (83.3) n (%) | TEAE: increased aspartate aminotransferase [1]: 2 (33.3) n (%) | TEAE: maculopapular rash [1]: 3 (50.0) n (%) | TEAE: nausea [1]: 2 (33.3) n (%) | TEAE: seizure [1]: 1 (16.7) n (%) | TEAE: vomiting [1]: 3 (50.0) n (%) | patients with DLTs (Grade 3 maculopapular rash; Grade 2 nausea and vomiting) (480 mg daily (240 mg BID), cutoff April 21, 2024): two | serious TEAE: confusional state [2]: one | serious TEAE: fatigue [2]: one | patients with serious TEAEs (N=23 (6 patients), cutoff April 21, 2023): 26.1% | patients with Grade ≥3 TEAEs (N=23 (13 patients), cutoff April 21, 2023): 56.5% | patients with TEAEs considered to be related to the study drug (N=23 (16 patients), cutoff April 21, 2023): 69.6% | Grade ≥3 TEAE: aphasia [3]: 8.7% | Grade ≥3 TEAE: decreased lymphocyte count [3]: 8.7% | Grade ≥3 TEAE: decreased white blood cell count [3]: 8.7% | Grade ≥3 TEAE: headache [3]: 8.7% | Grade ≥3 TEAE: decreased neutrophil count (N=23 (n=3), cutoff April 21, 2023): 13.0% | Grade ≥3 TEAE: seizure (N=23 (n=4), cutoff April 21, 2023): 17.4% | patients who died during the study due to TEAEs (assessed as not related) (N=23, 40 mg and 240 mg groups, cutoff April 21, 2023): two | Grade ≥3 TEAE considered related to Compound 1 (dry skin) (N=23, cutoff April 21, 2023): one | relatedness of serious TEAEs to Compound 1 (N=23, cutoff April 21, 2023): None of these serious TEAEs were considered to be related to Compound 1 | patients with serious TEAEs (N=39 (9 patients), cutoff April 21, 2024): 23.1% | patients with Grade ≥3 TEAEs (N=39 (23 patients), cutoff April 21, 2024): 59.0% | patients with TEAEs considered to be related to the study drug (N=39 (30 patients), cutoff April 21, 2024): 76.9% | Grade ≥3 TEAE considered related to Compound 1: fatigue (N=39 (n=1), cutoff April 21, 2024): 2.6% | Grade ≥3 TEAE considered related to Compound 1: dry skin [4]: 5.1% | Grade ≥3 TEAE considered related to Compound 1: maculopapular rash [4]: 5.1% | Grade ≥3 TEAE: decreased white blood cell count [4]: 5.1% | Grade ≥3 TEAE: dry skin [4]: 5.1% | Grade ≥3 TEAE: increased alanine aminotransferase [4]: 5.1% | Grade ≥3 TEAE: maculopapular rash [4]: 5.1% | Grade ≥3 TEAE: aphasia [5]: 7.7% | Grade ≥3 TEAE: decreased lymphocyte count [5]: 7.7% | Grade ≥3 TEAE: decreased neutrophil count [5]: 7.7% | Grade ≥3 TEAE: headache [5]: 7.7% | Grade ≥3 TEAE: fatigue (N=39 (n=4), cutoff April 21, 2024): 10.3% | Grade ≥3 TEAE: seizure (N=39 (n=5), cutoff April 21, 2024): 12.8% | patients who died during the study due to TEAEs (N=39, 40 mg QD and 240 mg QD groups, cutoff April 21, 2024): Two | serious TEAEs considered to be related to Compound 1 (N=39, cutoff April 21, 2024): nine and None of these serious TEAEs were considered to be related to Compound 1 | Number of patients with any TEAE [6]: 23 (100) n (%) | TEAE: constipation [6]: 7 (30.4) n (%) | TEAE: decreased appetite [6]: 3 (13.0) n (%) | TEAE: decreased lymphocyte count [6]: 5 (21.7) n (%) | TEAE: decreased neutrophil count [6]: 6 (26.1) n (%) | TEAE: decreased platelet count [6]: 4 (17.4) n (%) | TEAE: decreased white blood cell count [6]: 3 (13.0) n (%) | TEAE: dry skin [6]: 5 (21.7) n (%) | TEAE: fall [6]: 3 (13.0) n (%) | TEAE: headache [6]: 7 (30.4) n (%) | TEAE: hypertrigly-ceridaemia [6]: 4 (17.4) n (%) | TEAE: hyponatremia [6]: 3 (13.0) n (%) | TEAE: increased alanine aminotransferase [6]: 12 (52.2) n (%) | TEAE: increased aspartate aminotransferase [6]: 6 (26.1) n (%) | TEAE: nausea [6]: 11 (47.8) n (%) | TEAE: seizure [6]: 5 (21.7) n (%) | TEAE: vomiting [6]: 6 (26.1) n (%) | Number of Patients with Any TEAE [7]: 39 (100) n (%) | TEAE: Confusional state [7]: 4 (10.3) n (%) | TEAE: Gait disturbance [7]: 4 (10.3) n (%) | TEAE: Gastrointestinal disorder [7]: 4 (10.3) n (%) | TEAE: Hiccups [7]: 4 (10.3) n (%) | TEAE: Tremor [7]: 4 (10.3) n (%) | TEAE: alopecia [7]: 6 (15.4) n (%) | TEAE: constipation [7]: 11 (28.2) n (%) | TEAE: decreased appetite [7]: 6 (15.4) n (%) | TEAE: decreased lymphocyte count [7]: 6 (15.4) n (%) | TEAE: decreased neutrophil count [7]: 6 (15.4) n (%) | TEAE: decreased platelet count [7]: 5 (12.8) n (%) | TEAE: diarrhea [7]: 5 (12.8) n (%) | TEAE: dry skin [7]: 10 (25.6) n (%) | TEAE: fall [7]: 9 (23.1) n (%) | TEAE: fatigue [7]: 7 (17.9) n (%) | TEAE: headache [7]: 9 (23.1) n (%) | TEAE: hypertrigly-ceridaemia [7]: 5 (12.8) n (%) | TEAE: hyponatremia [7]: 5 (12.8) n (%) | TEAE: increase in blood cholesterol [7]: 4 (10.3) n (%) | TEAE: increased alanine aminotransferase [7]: 25 (64.1) n (%) | TEAE: increased aspartate aminotransferase [7]: 13 (33.3) n (%) | TEAE: maculopapular rash [7]: 4 (10.3) n (%) | TEAE: nausea [7]: 21 (53.8) n (%) | TEAE: seizure [7]: 7 (17.9) n (%) | TEAE: vomiting [7]: 14 (35.9) n (%) | study drug related Grade 3 AEs (dry skin, and rash) (as of September 2023, n=33): 2 | study drug-related SAEs (as of September 2023, n=33): no study drug-related SAEs reported | dose-limiting toxicities (DLTs) (from 20 mg QD to 240 mg QD, cutoff April 21, 2024): No dose-limiting toxicities (DLTs) were observed | dose limiting toxicity (from 20 mg up to 240 mg, as of September 2023): No dose limiting toxicity reported | serious TEAE: seizure (one 20 mg QD, one 120 mg QD, two 180 mg QD, cutoff April 21, 2024): four
